Experimental data published in US20220265759A1, “COMPOSITION AND METHOD FOR PROMOTING WOUND HEALING” (THE BOARD OF TRUSTEES OF THE UNIVERSITY OF ILLIOIS, priority 2019, published 2022).
Peptide text beside a SMILES is read from it. * marks the point of attachment. Myristoyl = CCCCCCCCCCCCCC(=O)*

Legend:
[1] = system: eNOS and CCR10 interaction with LAMP1; experiment: eNOS internalization and degradation in HDMVECs stimulated with CCL28 (Co-IP with LAMP1, confocal microscopy); format: cell-based, human
Protocol: Co-IP Experiments, cells or mouse wounds were collected after treatment, and lysed in 2% ODG in Tris buffer. The homogenates were further prepared for Co-IP experiments as described in the art (Chen, et al. (2018) Mol. Biol. Cell 29(10):1190-1202; Chen, et al. (2020) FASEB J. 34(4):5838-5850; Chen, et al. (2015) Ann. Rheum. Dis. 74:1898-1906).
Confocal Microscopy. For cellular immunostaining, confluent monolayers of cells grown on coverslips were prepared as described previously (Chen, et al. (2012) Mel. Biol. Cell 23(7):1388-1398). Fluorescent images were obtained using a Zeiss LSM 880 confocal microscope. The co-localization coefficient in specified regions of interest (ROI) were determined using Zeiss Zen software. Briefly, using the Overlay tool, the desired ROI was drawn along the cell edge and the values for the ROIs tabulated. The scatterplot and table were automatically adjusted to the pixel distribution for the selected ROI. The data from different treatment groups were collected and analyzed for statistical significance as described previously (Chen, et al. (2020) FASEB J. 34(4):5838-5850). […]
Since myristoylated 7 amino acid CCR10-binding domain (Myr-CBD7) peptide can block eNOS interaction with CCR10 and increase eNOS activity in HUVECs, it was assessed whether Myr-CBD7 can prevent eNOS internalization and degradation in HDMVECs following CCL28 stimulation. […]

NO production = NO production in db/db mouse wounds (nitrite measurement); format: in vivo, db/db mice; conditions: day 12, nitrite measurement
Protocol: Nitrite Measurement with Griess Reagent. Supernatants from confluent endothelial cells on 10-cm dishes with and without stimulation at 37° C. were analyzed for nitrite level using a Griess Reagent kit according to the manufacturer's instructions. Nitrite levels were normalized to eNOS expression level in the cells, as described in the art (Chen, et al. (2020) FASEB J. 34(4):5838-5850).
Two 8 mm full thickness excisional wounds were made on the dorsal skin of diabetic db/db mice and then 50 μl of 50 μM Myr-CBD7 peptide was topically applied. […] Reduced CCR10-eNOS interaction was also observed in the mouse wounds following treatment with Myr-CBD7 peptide as determined by Co-IP (FIG. 6).

[2] = system: CCL28, IL-6, TNF-α, IL-1β, CCR10, VEGF, IL-13, IL-4, eNOS, CD31, Flk-1, VE-cadherin; experiment: ELISA and real-time RT-PCR of inflammatory factors and EC markers in db/db mouse wounds; format: in vivo, db/db mice
Protocol: Real-Time RT-PCR. Total cellular RNA from mouse skin wounds was extracted using nucleic acid extraction reagent sold under the tradename TRIZOL®. mRNA expression of different genes was examined by real-time RT-PCR that employed a SYBR Green PCR mix. Relative gene expression was determined by the ΔΔCt method based on GAPDH levels as described previously (Chen, et al. (2013) J. Immunol. 190:5256-5266).
ELISA Measurement. Mouse skin wounds were collected, lysed, and prepared for ELISA measurement of mouse CCL28 and IL-6 according to manufacturer's instructions.
It was investigated whether topical application of Myr-CBD7 affects these factors in db/db mice known to play important roles in the healing processes. Mouse wounds on day 3 (Inflammation Phase) and day 12 (Proliferation Phase) were collected and inflammatory factor levels were determined by ELISA and real-time RT-PCR.
On day 12 after Myr-CBD7 treatment, elevated levels of eNOS/NO were observed as well as enhanced angiogenesis in mouse wounds. Furthermore, Myr-CBD7 treatment lead to elevated levels of VEGF, anti-inflammatory cytokines IL-13 and IL-4 (M2 markers), as well as EC markers eNOS, CD31, Flk-1 and VE-cadherin in mouse wounds.

CCCCCCCCCCCCCC(=O)N[C@@H](CCCCN)C(=O)N[C@H](C(=O)N[C@@H](CO)C(=O)N[C@@H](C)C(=O)N[C@@H](CO)C(=O)N[C@@H](CC(C)C)C(=O)N[C@@H](CCSC)C(=O)O)[C@@H](C)CC [Myr-CBD7, myr-KISASLM] (Myristoyl-KISASLM-OH)
eNOS interaction with LAMP1 ([1]; HDMVECs, pretreatment, CCL28 stimulation, compared to scrambled control peptide): prevented
eNOS localization (confocal microscopy) ([1]; pretreatment prior to CCL28 for 3 hours): remained on the plasma membrane
NO production in wounds (NO production): significantly elevated
level of CCR10 ([2]; day 3, compared to control peptide): reduced
mRNA level of IL-6 ([2]; day 3 wounds): reduced
protein level of CCL28 ([2]; day 3 wounds, ELISA): significantly reduced
protein level of IL-6 ([2]; day 3 wounds, ELISA): significantly reduced
protein level of TNF-α ([2]; day 3 wounds, ELISA): significantly reduced
level of EC marker CD31 ([2]; day 12 wounds): elevated
level of EC marker Flk-1 ([2]; day 12 wounds): elevated
level of EC marker VE-cadherin ([2]; day 12 wounds): elevated
level of EC marker eNOS ([2]; day 12 wounds): elevated
level of IL-4 ([2]; day 12 wounds): elevated
level of IL-13 ([2]; day 12 wounds): elevated
level of VEGF ([2]; day 12 wounds): elevated
